This note sets out measurements from EP0232893A2, “Antibiotics of the streptogramine type, a microbiological process for their preparation and their use as medicaments and food additives” (HOECHST AKTIENGESELLSCHAFT, priority 1986, dated 1987).

This assay can be described thus: Feeding trials in animals, growth promotion. It counts as in vivo, Mastgeflügel, Schweinen, Mastrindern, Schafen und Kaninchen. Particulars: e.g. fattening poultry, pigs, fattening cattle, sheep, rabbits. An excerpt:
Dies gilt auch für die einzelnen Komponenten, insbesondere für das Neoviridogrisein IV, für das ein wachstumsfördernder -Effekt bisher nicht beschrieben war. Auch die Legeleistung von Geflügel, insbesondere das Eigewicht und die Milchleistung von Milchkühen, -schafen und -ziegen wird durch den Antibiotikakomplex oder seine einzelnen Komponenten positiv beeinflußt.
Zur Erzielung des Effekts verwendet man Konzentrationen von 2 - 100 ppm, vorzugsweise 2 - 50 ppm, insbesondere 5 - 20 ppm, bezogen auf Alleinfutter. Entsprechend höher sind die Konzentrationen, wenn die Antibiotika als Zusatz zu Beifutter verabreicht werden.

*1 amine or outer side, *2 acyl side, *3 side chain or, on linkers, in order; H or OH if unused. Where a SMILES comes first, the peptide text is derived from it. Bridges are numbered along the chain shown (N, C = ends). [ ]: non-standard residue; d: D form. The star is where a group is joined. X1 = CC(C)[C@H](C)[C@@H](C(=O)[*:2])N(C)[*:1]; d(cisHyp) = O=C(O)[C@H]1C[C@@H](O)CN1; Picolinoyl(3-OH) = O=C(c1ncccc1O)*; NMePhg = CN[C@H](C(=O)O)c1ccccc1; Sar = CNCC(=O)O

For `CC(C)C[C@H]1NC(=O)[C@@H](NC(=O)c2ncccc2O)[C@@H](C)OC(=O)[C@H](c2ccccc2)N(C)C(=O)[C@H](C)NC(=O)[C@H]([C@@H](C)C(C)C)N(C)C(=O)CN(C)C(=O)[C@H]2C[C@@H](O)CN2C1=O` [Neoviridogrisein IV] ({Picolinoyl(3-OH)}-T[dL][d(cisHyp)][Sar][X1]A[NMePhg]; ester 1-C), the “wachstumsfördernde Wirkung” value is given as “ausgeprägte wachstumsfördernde Wirkung”.
